Active and inactive are the calls of the source. The rule behind the calls is not given here.
Experiments:
LAD2 [1] = experiment: Cytotoxicity against human LAD2 cells assessed as reduction in cell viability at 10 uM incubated for 24 hrs by Cell Counting Kit assay; format: toxicity, cell-based; details: lad2, 24 h
LAD2 [2] = experiment: Anti-pseudo allergic activity in human LAD2 cells assessed as inhibition of C48/80-induced beta-hexosaminidase release at 0.1 to 10 uM pretreated for 30 mins followed by C48/80 addition measured after 30 mins; format: functional, cell-based; details: dose 0.1-10 µM, time 1.0 hrs
LAD2 [3] = experiment: Anti-pseudo allergic activity in human LAD2 cells assessed as inhibition of C48/80-induced beta-hexosaminidase release; format: functional, cell-based
LAD2 [4] = experiment: Anti-pseudo allergic activity in human LAD2 cells assessed as inhibition of C48/80-induced histamine release at 0.1 to 10 uM pretreated for 30 mins followed by C48/80 addition measured after 30 mins by HPLC-MS analysis; format: functional, cell-based; details: dose 0.1-10 µM
LAD2 [5] = experiment: Anti-pseudo allergic activity in human LAD2 cells assessed as decrease in C48/80-induced calcium intracellular mobilization at 10 uM by fluorescence based assay; format: functional, cell-based
Mus musculus [6] = experiment: Anti-pseudo allergic activity against C48/80-induced passive cutaneous anaphylaxis mouse model assessed as body temperature loss at 10 mg/kg followed by C48/80 administration intravenously after 30 mins post-compound administration measured every 5 mins for 30 mins; format: functional, organism-based; details: route iv, time 1.0 hrs
Mus musculus [7] = experiment: Anti-pseudo allergic activity against C48/80-induced passive cutaneous anaphylaxis mouse model assessed as reduction in serum histamine level at 1 to 10 mg/kg followed by C48/80 administration intravenously after 30 mins post-compound administration measured every 5 mins for 30 mins by LC/MS/MS analysis; format: functional, organism-based; details: dose 1-10 mg/kg, route iv
Mus musculus [8] = experiment: Anti-pseudo allergic activity against C48/80-induced passive cutaneous anaphylaxis mouse model assessed as increase in local tissue edema vascular permeability at 1 to 10 mg/kg followed by C48/80 administration after 30 mins post-compound administration measured every 5 mins for 30 mins; format: functional, organism-based; details: dose 1-10 mg/kg
Mus musculus [9] = experiment: Anti-pseudo allergic activity against C48/80-induced passive cutaneous anaphylaxis C57 mouse model assessed as reduction in paw thickness rate at 0 to 1 mg/kg followed by C48/80 intravenously administration after 15 mins by Evans blue method; format: functional, organism-based; details: dose 0-1 mg/kg, route iv
Mus musculus [10] = experiment: Anti-pseudo allergic activity against C48/80-induced passive cutaneous anaphylaxis mouse model assessed as decrease in degranulation level at 0 to 1 mg/kg followed by C48/80 addition measured after 45 mins by FITC-avidin staining based laser scanning confocal microscopy; format: functional, organism-based; details: dose 0-1 mg/kg
[11] = target: T1, Mas-related G-protein coupled receptor member X2 (Homo sapiens) (UniProt Q96LB1); experiment: Antagonist activity at MRGPRX2 (unknown origin) expressed in HEK293 cells assessed as inhibition of calcium mobilization at upto 10 uM; format: functional, cell-based; details: filed as antagonist
T1 sequence (whole entry): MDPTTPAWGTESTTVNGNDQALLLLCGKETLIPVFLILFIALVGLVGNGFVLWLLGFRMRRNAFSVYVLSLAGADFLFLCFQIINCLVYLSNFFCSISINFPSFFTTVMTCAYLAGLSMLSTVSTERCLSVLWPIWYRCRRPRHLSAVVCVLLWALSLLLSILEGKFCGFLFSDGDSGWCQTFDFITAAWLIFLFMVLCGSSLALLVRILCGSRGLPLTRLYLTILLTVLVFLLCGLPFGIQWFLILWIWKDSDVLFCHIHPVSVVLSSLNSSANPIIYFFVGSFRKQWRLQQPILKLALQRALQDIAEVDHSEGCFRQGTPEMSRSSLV

HEK293 [12] = experiment: Anti-pseudo allergic activity in HEK293 cells expressing H1R assessed as inhibition of histamine induced calcium release at 0 to 10 uM; format: functional, cell-based; details: Homo sapiens, dose 0-10 µM
HEK293 [13] = experiment: Anti-pseudo allergic activity in HEK293 cells assessed as prevention of calcium entry in presence of emodin at 0 to 10 uM; format: functional, cell-based; details: Homo sapiens, dose 0-10 µM
Mus musculus [14] = experiment: Anti-pseudo allergic activity against passive cutaneous anaphylaxis-induced mouse model assessed as systemic symptoms at 1 to 10 mg/kg followed by C48/80 administration after 30 mins post-compound administration measured every 5 mins for 30 mins; format: functional, organism-based; details: dose 1-10 mg/kg
Mus musculus [15] = experiment: Anti-pseudo allergic activity against passive cutaneous anaphylaxis-induced C57 mouse model assessed as reduction in C48/80-induced extravasation rate at 0 to 1 mg/kg followed by C48/80 intravenously administration after 15 mins by Evans blue method; format: functional, organism-based; details: dose 0-1 mg/kg, route iv

Structure (SMILES)	Activity (LAD2 [1])	Activity (LAD2 [2])	IC50 (LAD2 [3])	inhibition (LAD2 [4])	Activity (LAD2 [5])	Activity (Mus musculus [6])	Activity (Mus musculus [7])	Activity (Mus musculus [8])	Activity (Mus musculus [9])	Activity (Mus musculus [10])	Activity [11]	Activity (HEK293 [12])	Activity (HEK293 [13])	Activity (Mus musculus [14])	Activity (Mus musculus [15])
O=C(Nc1cccc(C(F)(F)F)c1)Nc1cccc(C(F)(F)F)c1	Non-Toxic	Active	1590 nM	Active											
O=C(Nc1ccc(C(F)(F)F)cc1)Nc1cc(Br)cc(C(F)(F)F)c1	Non-Toxic	Active	620 nM	Active	Active	Active	Active	Active	Active	Active	Active	Active	Active	Active	Active
O=C(Nc1ccc(Br)cc1)Nc1ccc(Br)cc1	Non-Toxic														
O=C(Nc1ccc(C(F)(F)F)cc1Cl)Nc1ccc(C(F)(F)F)cc1Cl	Non-Toxic	Active	2160 nM	Active											
O=C(Nc1ccc(Cl)c(C(F)(F)F)c1)Nc1ccc(C(F)(F)F)cc1Cl		Active	1100 nM	Active											
O=C(Nc1ccc(F)cc1)Nc1ccc(C(F)(F)F)cc1	Non-Toxic	Active	1640 nM	Active											
O=C(Nc1ccc(F)cc1)Nc1ccc(F)cc1	Non-Toxic														
O=C(Nc1ccc(Br)cc1)Nc1ccc(C(F)(F)F)cc1Cl	Non-Toxic	Active	2510 nM	Active											
O=C(Nc1ccc(C(F)(F)F)cc1)Nc1ccc(C(F)(F)F)cc1Cl	Non-Toxic	Active	800 nM	Active											
O=C(Nc1ccc(F)cc1)Nc1ccc(C(F)(F)F)cc1Cl	Non-Toxic	Active	1400 nM	Active											
O=C(Nc1ccc(C(F)(F)F)cc1)Nc1ccc(C(F)(F)F)cc1	Non-Toxic	Active	970 nM	Active	Active	Active	Active	Active	Active	Active	Active	Active	Active	Active	Active
O=C(Nc1ccc(F)cc1)Nc1cc(Br)cc(C(F)(F)F)c1	Non-Toxic														
O=C(Nc1ccc(Cl)c(C(F)(F)F)c1)Nc1ccc(Cl)c(C(F)(F)F)c1	Non-Toxic	Active	790 nM	Active	Active	Active	Active	Active	Active	Active	Active	Active	Active	Active	Active

Source: ChEMBL document CHEMBL5137071, “Convenient Diaryl Ureas as Promising Anti-pseudo-allergic Agents” (J Med Chem, 2022)
